Test results: patent US20250270513A1, “METHOD FOR PRODUCING CULTURED TISSUE, AND PREPARATION FOR EXTERNAL APPLICATION” (National University Corporation Ehime University, priority 2019, published 2025)

How the values were obtained:
[1] = tested on: FGF2 mRNA; assay: qPCR of FGF2 gene in monolayer fibroblasts (Test Example 3-2); assay type: cell-based, human; conditions: for FGF2 expression level compared to control without trehalose (vehicle): after 3 hours of culture
Description: • (1) NHDF was seeded on a cell culture dish containing 1% FCS and 1% ABAM-containing DMEM medium containing 0, 30, and 100 mg/mL trehalose so as to be 5.5×10^4 cells/cm^2, and cultured for 3, 24, or 48 hours. • (2) Cells under each condition were collected, and mRNA was extracted using RNeasy Mini Kit (manufactured by QIAGEN). CDNA was prepared from mRNA using iScript cDNA Synthesis kit (manufactured by B10-RAD Laboratories). The method was performed according to each manual. Next, quantitative PCR (qPCR) of FGF2 gene was performed. For the reaction, Fast Start Universal Probe Master (Rox) (Roche) and StepOnePlue Real time PCR system were used. As a primer set, TaqMan probes for FGF2 (ThermoFisher Scientific) described in Table 5 were used. GAPDH was used as a reference gene. The number of samples used in each condition was 3.

[2] = tested on: human normal skin keratinocytes on collagen gel containing normal human skin fibroblasts (NHDF); assay: Three-dimensional cultured skin on a sugar-containing dermal cell structure (Test Example 1); assay type: cell-based
Description: Subsequently, about 1 mL of the gel obtained was poured into a transwell-collagen coated insert (catalog number: 3492, manufactured by Costar; pore size: 3.0 μm, surface area: 4.67 cm^2), which is a cell culture insert, and allowed to stand in an incubator for 5 minutes or more. 5 mL of DMEM containing 10 v/v % FCS and 1 v/v % ABAM (Antibiotics-Antimycotic solution, 100×, manufactured by ThermoFisher Scientific Inc.) in which normal human skin fibroblasts (NHDF, manufactured by Cambrex Corporation) were suspended at a cell density of 5×10^5 cells/mL was added to 29 mL of the gel solution I. About 3.5 mL of a gel solution containing the cells was added to the cell culture insert, and the mixture was allowed to stand in a 37° C. incubator for 30 minutes to gel.
• (2) Next, the collagen gel (layered dermal cell structure) containing NHDF was pre-cultured for 5 days using a DMEM medium containing 50 μg/ml ascorbic acid, 10 v/v % FCS, and 1 v/v % ABAM. Next, human normal skin keratinocytes suspended in MCDB medium were seeded on the collagen gel surface so as to be 1.28×10^5 cells/cm^2, and a medium obtained by mixing equal amounts of MCDB Type-II medium (Growth Medium 2 in JP-B2-3066624) and EGM was added to an external liquid of the cell culture insert and the inside of the insert, followed by culturing at 37° C. for 2 days.
• (3) The medium was replaced with a cornification medium (CM medium), and the cell culture insert was placed such that a porous membrane of the cell culture insert was located at a gas-liquid interface of the cornification medium. In this state, the cells were subjected to gas-liquid interface culture at 37° C. for 7 to 14 days to induce differentiation, thereby obtaining three-dimensional cultured skin. The medium was replaced every two days from the start of the culture.

[3] = tested on: three-dimensional cultured skin (dermal tissue layer fibroblasts); assay: Staining test of tissue sections of three-dimensional cultured skin (Test Example 1); assay type: cell-based, human
Source text: • (4) The obtained tissue sections of each three-dimensional cultured skin were stained with HE, EVG, HABP, K10, K5, Alcian blue, SMA and Ki67 by a conventional method. For Ki67 staining, a Ki67 antibody (manufactured by Novocastra Laboratories Ltd) and a secondary antibody (manufactured by Vector Laboratories) were used.

[4] = tested on: keratinocytes on layered dermal cell structure containing fibroblasts; assay: Large scale three-dimensional cultured tissue, confluent keratinocyte sheet, gas-liquid interface culture (Test Example 2); assay type: cell-based, human; conditions: 100 mg/mL trehalose in dermal cell structure; confluent keratinocyte sheet of about 1 cm; 75 mm insert; 5 days
Description: • (1) A layered dermal cell structure containing trehalose at a final concentration of 0 or 100 mg/mL was prepared according to the method (1) of Test Example above except that 10 mL of the gel solution I was added to a cell culture insert with a diameter of 75 mm, and 32 mL of the gel solution containing fibroblasts at the same cell density as in (1) was layered. • (2) A ring with a diameter of 1 cm was placed on the obtained collagen gel, and keratinocytes were seeded inside the ring and cultured in MCDB Type-II-EGM (1:1) medium for 2 days. As a result, a sheet of keratinocytes (epithelial cell layer) with a diameter of about 1 cm is formed on the collagen gel. • (3) When the keratinocytes became confluent, the ring was removed and the medium was replaced with CM medium, and gas-liquid interface culture was performed for 5 days in the same manner as in the method (3) of Test Example 1.

[5] = tested on: human normal skin keratinocytes on collagen gel containing pretreated NHDF; assay: Three-dimensional cultured skin using fibroblasts pretreated with trehalose (Test Example 4); assay type: cell-based
Description: • (1) NHDF was seeded on a cell culture dish containing 10% FCS and 1% ABAM-containing DMEM medium at a cell density of 4.0×10^4 cells/cm^2. After 24 hours from seeding, at a cell density of 4.5×10^4 cells/cm^2, the medium was replaced with 1% FCS and 1% ABAM-containing DMEM medium containing 0, 30, or 100 mg/mL trehalose, and the cells were incubated at 37° C. for 24 hours. Then, a collagen gel containing 5.0×10^5 cells/ml of the obtained NHDF was prepared under the same conditions as in Test Example 1 except that trehalose was not added. • (2) According to the method of Test Example 1, the obtained NHDF-containing collagen gel was pre-cultured for 5 days, and then human normal skin keratinocytes were seeded and cultured for 2 days at 37° C. • (3) Further, according to the method of Test Example 1, gas-liquid interface culture was performed at 37° C. for 7 days using CM medium.

[6] = 100 mg/mL trehalose, after 24 hours
[7] = 100 mg/mL trehalose, after 48 hours
[8] = culture to which trehalose was added

**Q.** How did the “FGF2 expression level compared to control without trehalose (vehicle)” value ([1]; 30 mg/mL trehalose) turn out when `OC[C@H]1O[C@H](O[C@H]2O[C@H](CO)[C@@H](O)[C@H](O)[C@H]2O)[C@H](O)[C@@H](O)[C@@H]1O` [trehalose, α, α-trehalose] was run?
**A.** Its value is “increase”.

**Q.** What about the “expression level of FGF2 mRNA” value ([1]; 30 mg/mL trehalose, after 48 hours) of the same compound?
**A.** The value was “slightly increased”.

**Q.** What about the “FGF2 expression level compared to control without trehalose (vehicle)” value ([1]; 100 mg/mL trehalose) of the same compound?
**A.** Its value is “increase”.

**Q.** What about the “FGF2 mRNA expression level compared to that at the start of the culture” value [1, 6] of the same compound?
**A.** Its value is “still also increased”.

**Q.** What about the “FGF2 mRNA expression level compared to the control” value [1, 6] of the same compound?
**A.** The value was “significantly increased”.

**Q.** What about the “FGF2 mRNA expression level compared to that at the start of the culture” value [1, 7] of the same compound?
**A.** The value was “still also increased”.

**Q.** And the “FGF2 mRNA expression level compared to the control” value [1, 7]?
**A.** Its value is “significantly increased”.

**Q.** What about the “area of the epithelial tissue layer formed” value ([2]; 10 mg/mL trehalose added to collagen gel containing fibroblasts, compared to no trehalose) of the same compound?
**A.** The value was “slightly enlarged”.

**Q.** And the “area of the epithelial tissue layer formed” value ([2]; 100 mg/mL trehalose added to collagen gel containing fibroblasts)?
**A.** The value was “extended to the outer edge of the insert and further expanded to protrude to the outside of the insert”.

**Q.** What about the “contraction of the collagen gel” value [2, 8] of the same compound?
**A.** The value was “not observed”.

**Q.** And the “wrinkles and rumples of the sheet-like epithelial tissue layer” value [2, 8]?
**A.** The value was “without wrinkles and rumples”.

**Q.** And the “Ki67 positive cells in the dermal tissue layer” value ([3]; 0, 10, 100 mg/mL trehalose)?
**A.** Its value is “increased as the concentration of trehalose increased”.

**Q.** And the “difference in staining pattern depending on the concentration of trehalose” value ([3]; HE, EVG, HABP, K10, K5, Alcian blue, SMA stains (all except Ki67), 0, 10, 100 mg/mL)?
**A.** Its value is “no difference”.

**Q.** What about the “expansion of the epithelial tissue layer during gas-liquid interface culture” value [4] of the same compound?
**A.** The value was “expanded to the outer edge of the culture insert”.

**Q.** And the “contraction of the collagen gel” value ([5]; fibroblast cells pre-cultured with trehalose)?
**A.** Its value is “not observed”.

**Q.** And the “enlargement of three-dimensional cultured skin in diameter compared to pre-culturing with medium containing no trehalose” value ([5]; fibroblasts pre-cultured with 30 mg/mL trehalose for 24 hours before collagen gel preparation)?
**A.** Its value is “about 1.4 times”.

**Q.** What about the “area of three-dimensional cultured skin” value ([5]; fibroblasts pre-cultured with 100 mg/mL trehalose for 24 hours before collagen gel preparation) of the same compound?
**A.** Its value is “enlarged to cover the entire cell culture insert”.
